US20120220580A1, “PREPARATION OF CAROTENOID DERIVATIVES AND THEIR APPLICATIONS” (BEIJING GINGKO GROUP BIOLOGICAL TECHNOLOGY CO., LTD., priority 2009, published 2012)
Where a name gives a salt, the structure may show the parent alone.

Legend:
[1] = tested on: nutritional obesity model rats; assay: Weight of fat pads around kidneys of nutritional obesity model rats (Example 19); assay type: in vivo, rat; conditions: after 30 d administration, x ± s; for Body weight(g) (After-experiment): Table 3
Protocol: (§1) Fucoxanthin group and test animal groups were administrated with same doses of the drugs. The basal feed control group continued to be fed with basal feed, other groups with high-fat feed. The basal feed- and model control groups were intragastric administrated with distilled water, the other, drug-administrated groups with respective doses of drug, the administration were carried out uninterruptedly for 30 d. Each group of the animals were bred in different hutches, the room temperature was controlled within (22±2)° C., using natural illumination, the animals took food and drank freely. The body weights of the animals were measured one time each week, feed-intakes of the rats were also observed and recorded. After 30 days the rats were weighed. Statistical analysis: Variance analysis of the data collected in this experiment was implemented by SAS software package, Dunnett's t-test was used for inter-group comparative analysis, p<0.05 was used as the criterion of statistical significance. Experimental procedures were the same as in Example 17. […] Statistical analysis was the same as in Example 16.

nutritional obesity rats [2] = assay: Weight of abdomen fat of nutritional obesity rats (Example 20); assay type: in vivo, rat; conditions: after 30 d administration, x ± s; for Body weight(g) (After-experiment): Table 4
Protocol: as §1

nutritional obesity rats [3] = assay: Weight of fat pads around testicles of nutritional obesity rats (Example 18); assay type: in vivo, rat; conditions: after 30 d administration, x ± s; for Body weight(g) (After-experiment): Table 2
Protocol: as §1

nutritional obesity rats [4] = assay: Body weight of nutritional obesity rats on high-fat feed, intragastric drug for 30 d (Example 17); assay type: in vivo, rat; conditions: x ± s; for Body weight(g) (After-experiment) / Body weight(g) increased: Table 1, high-fat feed; for Body weight(g) (After-experiment): after 30 d intragastric administration; for Body weight(g) increased: increase over 30 d of administration; for Body weight(g) (After-experiment): test concentration or dose not given here; for Body weight(g) increased: test concentration or dose not given here
Protocol: Fucoxanthin group and test animal groups were administrated with same doses of the drugs. The basal feed control group continued to be fed with basal feed, other groups with high-fat feed. The basal feed- and model control groups were intragastric administrated with distilled water, the other, drug-administrated groups with respective doses of drug, the administration were carried out uninterruptedly for 30 d. Each group of the animals were bred in different hutches, the room temperature was controlled within (22±2)° C., using natural illumination, the animals took food and drank freely. The body weights of the animals were measured one time each week, feed-intakes of the rats were also observed and recorded. After 30 days the rats were weighed. Statistical analysis: Variance analysis of the data collected in this experiment was implemented by SAS software package, Dunnett's t-test was used for inter-group comparative analysis, p<0.05 was used as the criterion of statistical significance.

lab mice = conditions: fucoxanthin as an additive in condensed food, experimental animals; cited from earlier work; note: test concentration or dose not given here
[5] = compared with fucoxanthin; cited from earlier work

Row | Molecule | Body weight(g) (After-experiment) [1] | Weight fat pads around kidneys(g) [1] | Weight fat pads around kidneys/bw × 100 [1] | Body weight(g) (After-experiment) (nutritional obesity rats [2]) | Weight abdomen fat/bw × 100 (nutritional obesity rats [2]) | Weight. abdomenfat (g) (nutritional obesity rats [2]) | Body weight(g) (After-experiment) (nutritional obesity rats [3]) | Weight fat pads around testicles(g) (nutritional obesity rats [3]) | Weight fat pads around testicles/bw × 100 (nutritional obesity rats [3]) | Body weight(g) (After-experiment) (nutritional obesity rats [4]) | Body weight(g) increased (nutritional obesity rats [4]) | other results
1 | fucoxanthin succinate 4-vitamin Cester sodium salt [compound 5] | 513.15 ± 11.00 g | 7.00 ± 0.32ΔΔ g | 1.12 ± 0.10ΔΔ | 504.01 ± 18.23 g | 0.71 ± 0.10ΔΔ | 3.58 ± 0.21ΔΔ g |  |  |  |  |  | 
2 | CC(=O)OC1CC(C)(C)C(=C=C/C(C)=C/C=C/C(C)=C/C=C/C=C(C)/C=C/C=C(\C)C(=O)CC23OC2(C)CC(OC(=O)CCC(=O)O)CC3(C)C)[C@@](C)(O)C1 (stereo partly drawn) [compound 2, fucoxanthin succinate] |  |  |  | 516.03 ± 12.15 g | 1.31 ± 0.12ΔΔ | 6.76 ± 0.22ΔΔ g | 512.1 ± 21.00 g | 6.00 ± 0.11ΔΔ g | 1.18 ± 0.13ΔΔ |  |  | 
3 | CC(=O)OC1CC(C)(C)C(=C=C/C(C)=C/C=C/C(C)=C/C=C/C=C(C)/C=C/C=C(\C)C(=O)CC23OC2(C)CC(OC(=O)/C=C(/CC(=O)O)C(=O)O)CC3(C)C)[C@](C)(O)C1 (stereo partly drawn) [compound 8, fucoxanthin aconitate] | 518.18 ± 15.21 g | 4.40 ± 0.34ΔΔ g | 0.85 ± 0.12ΔΔ |  |  |  |  |  |  |  |  | 
4 | CC(=O)OC1CC(C)(C)C(=C=C/C=C/C=C/C(C)=C/C=C/C=C(C)/C=C/C=C(\C)C(=O)CC23OC2(C)CC(OC(=O)CCC(=O)OC[C@H](O)[C@H]2OC(=O)C(O)=C2O)CC3(C)C)[C@@](C)(O)C1 (stereo partly drawn) [compound 4, fucoxanthin succinate-4-vitamin C ester] |  |  |  | 514.00 ± 30.22 g | 0.80 ± 0.11ΔΔ | 4.11 ± 0.14ΔΔ g | 514.00 ± 30.22 g | 4.00 ± 0.14ΔΔ g | 0.70 ± 0.21ΔΔ | 514.00 ± 30.22ΔΔ g | 27.41 ± 1.21ΔΔ g | 
5 | CC(=O)OC1CC(C)(C)C(=C=C/C(C)=C/C=C/C(C)=C/C=C/C=C(C)/C=C/C=C(\C)C(=O)CC23OC2(C)CC(OC(=O)CCCN(C)C)CC3(C)C)[C@](C)(O)C1 (stereo partly drawn) [compound 9, fucoxanthin di-methylaminobutyrate] | 514.13 ± 13.00 g | 5.00 ± 0.23ΔΔ g | 0.98 ± 0.11ΔΔ |  |  |  |  |  |  |  |  | 
6 | CC(=O)OC1CC(C)(C)C(=C=C/C(C)=C/C=C/C(C)=C/C=C/C=C(C)/C=C/C=C(\C)C(=O)CC23OC2(C)CC(OC(=O)CNC(=O)C(CS)NC(=O)CCC(N)C(=O)O)CC3(C)C)[C@](C)(O)C1 (stereo partly drawn) [compound 10, fucoxanthin glutathione ester] | 522.08 ± 18.11 g | 4.00 ± 0.40ΔΔ g | 0.75 ± 0.11ΔΔ | 517.00 ± 11.23 g | 1.50 ± 0.14ΔΔ | 7.75 ± 0.20ΔΔ g |  |  |  |  |  | 
7 | CC(=O)OC1CC(C)(C)C(=C=C/C(C)=C/C=C/C(C)=C/C=C/C=C(C)/C=C/C=C(\C)C(=O)CC23OC2(C)CC(OC(=O)CCC(=O)Oc2ccc(/C=C/c4cc(O)cc(O)c4)cc2)CC3(C)C)[C@@](C)(O)C1 (stereo partly drawn) [compound 14, fucoxanthin resveratrol succinate] |  |  |  |  |  |  | 514.00 ± 22.22 g | 5.00 ± 0.12ΔΔ g | 0.90 ± 0.12ΔΔ | 514.00 ± 22.22ΔΔ g | 28.52 ± 1.21ΔΔ g | 
8 | fucoxanthin citrate sodium salt [compound 6] |  |  |  |  |  |  |  |  |  | 507.00 ± 20.11ΔΔ g | 20.32 ± 1.21ΔΔ g | Body weight(g) (before-experiment) (nutritional obesity rats [4]; SD male rats, after 1 month high-fat feed, before drug administration (baseline), 10 rats per group): 485.89 ± 18.99 g
9 | CC(=O)OC1CC(C)(C)C(=C=C/C(C)=C/C=C/C(C)=C/C=C/C=C(C)/C=C/C=C(\C)C(=O)CC23OC2(C)CC(OC(=O)CCC(=O)O)CC3(C)C)[C@@](C)(O)C1 (stereo partly drawn) [compound 3, fucoxanthin succinate sodium salt] |  |  |  |  |  |  |  |  |  |  |  | Body weight(g) (After-experiment) (nutritional obesity rats [3]; succinate sodium salt): 513.1 ± 19.13 g; Weight fat pads around testicles(g) (nutritional obesity rats [3]; succinate sodium salt): 7.00 ± 0.13ΔΔ g; Weight fat pads around testicles/bw × 100 (nutritional obesity rats [3]; succinate sodium salt): 1.20 ± 0.10ΔΔ
10 | CC(=O)OC1CC(C)(C)C(=C=C/C(C)=C/C=C/C(C)=C/C=C/C=C(C)/C=C/C=C(\C)C(=O)CC23OC2(C)CC(O)CC3(C)C)[C@](C)(O)C1 (stereo partly drawn) [fucoxanthin, 3′-(Acetyloxy)-6′,7′-didehydro-5,6-epoxy-5,5′,6,6′,7,8-hexahydro-3,5′-dihydroxy-8-oxo-β,β-carotene, reference compound] | 531.00 ± 20.32 g | 7.42 ± 0.60Δ g | 1.42 ± 0.12Δ | 531.00 ± 20.32 g | 1.81 ± 0.13Δ | 9.61 ± 0.12ΔΔ g | 531.00 ± 20.32 g | 7.32 ± 0.83Δ g | 1.38 ± 0.11Δ | 531.00 ± 20.32Δ g | 43.68 ± 19.13Δ g | addiction or other side effects (lab mice): would not induce the addiction of the experimental animals, or had any other side effects
11 | CC(=O)OC1CC(C)(C)C(=C=C/C(C)=C/C=C/C(C)=C/C=C/C=C(C)/C=C/C=C(\C)C(=O)CC23OC2(C)CC(OC(=O)[C@@H](O)[C@H](O)C(=O)O)CC3(C)C)[C@](C)(O)C1 (stereo partly drawn) [compound 11, fucoxanthin tartrate] |  |  |  | 515.00 ± 18.90 g | 1.40 ± 0.13ΔΔ | 7.21 ± 0.23ΔΔ g |  |  |  | 515.00 ± 18.90ΔΔ g | 29.25 ± 1.23ΔΔ g | 
12 | C\C(C=C=C1C(C)(C)CC(OC(=O)N2CCOCC2)C[C@@]1(C)O)=C/C=C/C(C)=C/C=C/C=C(C)/C=C/C=C(\C)C(=O)CC12OC1(C)CC(OC(=O)N1CCOCC1)CC2(C)C (stereo partly drawn) [compound 12, fucoxanthol bi-morpholino carbamate] |  |  |  |  |  |  |  |  |  | 500.01 ± 20.10ΔΔ g | 12.12 ± 1.25ΔΔ g | 
13 | CCCCC/C=C\C/C=C\CCCCCCCC(=O)OC1CC(C)(C)C2(CC(=O)/C(C)=C/C=C/C(C)=C/C=C/C=C(C)/C=C/C=C(\C)C=C=C3C(C)(C)CC(OC(C)=O)C[C@@]3(C)O)OC2(C)C1 (stereo partly drawn) [compound 15, fucoxanthin linoleate] |  |  |  |  |  |  | 520.01 ± 16.88 g | 6.34 ± 0.55ΔΔ g | 1.22 ± 0.11ΔΔ |  |  | 
14 | C\C(C=C=C1C(C)(C)CC(O)C[C@@]1(C)O)=C/C=C/C(C)=C/C=C/C=C(C)/C=C/C=C(\C)C(=O)CC12OC1(C)CC(O)CC2(C)C (stereo partly drawn) [fucoxanthol, reference compound] | 527.00 ± 18.89 g | 7.0 ± 0.58ΔΔ g | 1.20 ± 0.10ΔΔ | 527.00 ± 18.89 g | 1.60 ± 0.11ΔΔ | 7.91 ± 0.11ΔΔ g | 527.00 ± 18.89 g | 7.00 ± 0.67ΔΔ g | 1.25 ± 0.13ΔΔ | 527.00 ± 18.89ΔΔ g | 39.39 ± 18.11ΔΔ g | weight-reducing activity [5]: much stronger than fucoxanthin
15 | CC(=O)OC1CC(C)(C)C(=C=C/C(C)=C/C=C/C(C)=C/C=C/C=C(C)/C=C/C=C(\C)C(=O)CC23OC2(C)CC(OC(=O)CC(O)(CC(=O)OC[C@H](O)[C@H]2OC(=O)C(O)=C2O)C(=O)O)CC3(C)C)[C@](C)(O)C1 (stereo partly drawn) [compound 7, fucoxanthincitrate5-vitamin C ester] |  |  |  |  |  |  |  |  |  | 506.00 ± 19.07ΔΔ g | 18.21 ± 1.12ΔΔ g | 
16 | CC(=O)OC1CC(C)(C)C(=C=C/C(C)=C/C=C/C(C)=C/C=C/C=C(C)/C=C/C=C(\C)C(=O)CC23OC2(C)CC(OC(=O)CC(O)(CC(=O)O)C(=O)O)CC3(C)C)[C@](C)(O)C1 (stereo partly drawn) [compound 1, fucoxanthin citrate] |  |  |  |  |  |  |  |  |  | 515.00 ± 29.21ΔΔ g | 28.50 ± 1.15ΔΔ g | 
